Among the test systems are CAKI-1 renal; HCT-116 colon; IGROV1 ovarian; NCI-H460 lung; PC-3 prostate; SF-268 CNS; SK-MEL-28 melanoma; TK-10 renal; UACC-62 melanoma; UO-31 renal.
Holding throughout (assay): NCI anticancer screen, dose series, 48 h

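Following 48 hours of exposure in 96-well plates, responses at five concentrations were used to interpolate endpoints linearly. GI50 marks 50% less growth. The concentration for full growth arrest is given as TGI.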

On to `NCCCCN(Cc1nc2ccccc2[nH]1)[C@H]1CCCc2cccnc21`, for which the GI50 with CAKI-1 renal was 16.1 µM; with HCT-116 colon, 6.81 µM; in the experiment with IGROV1 ovarian it was 12.6 µM; in the experiment on NCI-H460 lung, 7.47 µM; in the experiment on PC-3 prostate it was 5.52 µM; in the experiment on SF-268 CNS, 9.71 µM. The GI50 in the experiment with SK-MEL-28 melanoma was 14.9 µM; in the experiment with TK-10 renal, 25.3 µM; in the experiment on UACC-62 melanoma it was 17.8 µM; with UO-31 renal, 12 µM. For the same compound, the TGI in the experiment with CAKI-1 renal was more than 64.4 µM; with HCT-116 colon it was 51.3 µM; in the experiment with IGROV1 ovarian, more than 100 µM; with NCI-H460 lung it was more than 100 µM; with PC-3 prostate it was more than 93.2 µM; with SF-268 CNS, 97.3 µM. For the same compound, the TGI in the experiment on SK-MEL-28 melanoma was 34.8 µM; with TK-10 renal it was more than 75.3 µM; in the experiment with UACC-62 melanoma, 47.4 µM; with UO-31 renal, more than 72.7 µM.
As for `COc1ccc(/C=C/C(=O)c2cc3c(N)c(C(=O)Nc4ccccc4)sc3nc2C)cc1`, the GI50 in the experiment with CAKI-1 renal was 0.258 µM; in the experiment on HCT-116 colon it was 0.189 µM; in the experiment on IGROV1 ovarian, 0.252 µM; in the experiment on NCI-H460 lung, 0.195 µM; in the experiment with PC-3 prostate, 0.184 µM; in the experiment with SF-268 CNS it was 0.517 µM. The GI50 was 2.16 µM with SK-MEL-28 melanoma, 1.27 µM in the experiment on TK-10 renal, 0.119 µM in the experiment on UACC-62 melanoma and 0.688 µM with UO-31 renal. The TGI with CAKI-1 renal is more than 50 µM; in the experiment with HCT-116 colon it was 5.1 µM; in the experiment with IGROV1 ovarian, more than 50 µM; in the experiment with PC-3 prostate, more than 50 µM; in the experiment on SF-268 CNS it was more than 50 µM; in the experiment with SK-MEL-28 melanoma, more than 45.1 µM. For the same compound, the values for the TGI in the experiment with TK-10 renal, with UACC-62 melanoma and in the experiment on UO-31 renal were more than 50 µM, more than 50 µM and 20.1 µM, respectively.
Consider `C=C1C(=O)O[C@H]2[C@H]1CC/C(CNS(=O)(=O)c1cccc3ccccc13)=C\CC[C@@]1(C)O[C@@H]21`, for which the GI50 in the experiment on CAKI-1 renal is 1.12 µM; in the experiment on HCT-116 colon it was 1.08 µM; in the experiment on IGROV1 ovarian, 1.38 µM; in the experiment on NCI-H460 lung, 4.28 µM; in the experiment on PC-3 prostate, 1.91 µM; in the experiment on SF-268 CNS it was 3.74 µM. Also, the GI50 in the experiment on SK-MEL-28 melanoma was 1.97 µM; with TK-10 renal, 1.48 µM; in the experiment on UACC-62 melanoma, 1.67 µM; in the experiment with UO-31 renal it was 1.45 µM. The TGI in the experiment on CAKI-1 renal was 2.56 µM; in the experiment with HCT-116 colon, 2.3 µM; in the experiment on IGROV1 ovarian, 3.4 µM; with NCI-H460 lung, 17 µM; in the experiment with PC-3 prostate, 4.51 µM; in the experiment with SF-268 CNS, 15.1 µM. The TGI is 4.24 µM in the experiment on SK-MEL-28 melanoma, 3.08 µM in the experiment on TK-10 renal, 4.5 µM in the experiment with UACC-62 melanoma and 2.94 µM in the experiment on UO-31 renal.
Consider `O=C1C(=O)c2ccccc2C(O)=C1CCCCCCCCC1CCCCC1`, for which the TGI in the experiment with CAKI-1 renal stood at 57 µM; in the experiment on HCT-116 colon, 12.3 µM; in the experiment on IGROV1 ovarian, 19.2 µM; in the experiment with NCI-H460 lung, 15.9 µM; in the experiment on PC-3 prostate, 19.5 µM; in the experiment with SF-268 CNS, 22.6 µM. Further, the TGI is 35 µM in the experiment on SK-MEL-28 melanoma, 38.7 µM in the experiment with TK-10 renal, 18.4 µM in the experiment on UACC-62 melanoma and 20.6 µM in the experiment on UO-31 renal.
On to `OC(CNC1CCCC1)Cn1c2ccccc2c2ccccc21` (centres undefined), for which the GI50 in the experiment on CAKI-1 renal was more than 100 µM; in the experiment with HCT-116 colon, 67.3 µM; with IGROV1 ovarian, 72.9 µM; in the experiment with NCI-H460 lung it was more than 100 µM; in the experiment with PC-3 prostate, more than 100 µM; in the experiment with SF-268 CNS, 27 µM. Moreover, the GI50 with SK-MEL-28 melanoma is more than 100 µM; with TK-10 renal, 27.5 µM; in the experiment on UACC-62 melanoma, 32.7 µM; in the experiment on UO-31 renal it was 97.2 µM. In addition, the TGI in the experiment with CAKI-1 renal is more than 100 µM; in the experiment with HCT-116 colon, more than 100 µM; with IGROV1 ovarian, more than 100 µM; in the experiment on NCI-H460 lung, more than 100 µM; in the experiment on PC-3 prostate, more than 100 µM; in the experiment on SF-268 CNS, 80.4 µM. In addition, the TGI in the experiment on SK-MEL-28 melanoma, in the experiment with TK-10 renal, with UACC-62 melanoma and with UO-31 renal was more than 100 µM each time.
As for `COC(=O)c1cc2oc(/C=C3\SC(=S)N(NC(C)=O)C3=O)cc2n1Cc1ccccc1`, the GI50 was 2.42 µM in the experiment with CAKI-1 renal; 7.62 µM in the experiment on HCT-116 colon; 7.31 µM in the experiment with IGROV1 ovarian; 1.28 µM in the experiment with NCI-H460 lung; 1.61 µM in the experiment with PC-3 prostate; 4.16 µM with SF-268 CNS. In addition, the GI50 in the experiment with SK-MEL-28 melanoma is 9.06 µM; in the experiment on TK-10 renal, 6.14 µM; in the experiment on UACC-62 melanoma it was 8.91 µM; in the experiment with UO-31 renal it was 8.88 µM. Moreover, the TGI was 7.79 µM with CAKI-1 renal; 14.3 µM in the experiment with HCT-116 colon; more than 50 µM in the experiment with IGROV1 ovarian; 37.1 µM in the experiment on NCI-H460 lung; 9.82 µM in the experiment on PC-3 prostate; 27.6 µM in the experiment with SF-268 CNS. Further, the TGI in the experiment on SK-MEL-28 melanoma was 38.5 µM; in the experiment on TK-10 renal it was 15.5 µM; in the experiment with UACC-62 melanoma it was 16.6 µM; in the experiment on UO-31 renal, more than 50 µM.
Consider `COC(=O)[C@@]1(O)C[C@H]2O[C@]1(C)n1c3ccccc3c3c4c(c5c6ccccc6n2c5c31)C(=O)NC4`, for which the GI50 in the experiment on CAKI-1 renal is 0.0149 µM; with HCT-116 colon, 0.102 µM; in the experiment with IGROV1 ovarian, 0.17 µM; with NCI-H460 lung it was 0.121 µM; in the experiment on PC-3 prostate it was 0.251 µM; with SF-268 CNS it was 0.63 µM. In addition, the GI50 in the experiment on SK-MEL-28 melanoma was 0.203 µM; in the experiment on TK-10 renal, 0.0284 µM; in the experiment on UACC-62 melanoma it was 0.132 µM; with UO-31 renal, 0.0256 µM. Moreover, the TGI in the experiment on CAKI-1 renal was found to be 0.217 µM; in the experiment with HCT-116 colon, 2.24 µM; in the experiment on IGROV1 ovarian, 3.28 µM; with NCI-H460 lung, 1.38 µM; in the experiment on PC-3 prostate, 2.95 µM; in the experiment with SF-268 CNS it was 3.17 µM. Also, the TGI worked out at 1.26 µM in the experiment with SK-MEL-28 melanoma, 1.39 µM in the experiment on TK-10 renal, 1.55 µM in the experiment on UACC-62 melanoma and 1.37 µM in the experiment with UO-31 renal.

The values are drawn from PubChem BioAssay (NCI).
